Test results: ChEMBL document CHEMBL3217615, “Novel 3,5-bis(arylidiene)-4-piperidone based monocarbonyl analogs of curcumin: anticancer activity evaluation and mode of action study” (2014)

Legend:
Type in all cases: functional
[1] = Growth inhibition of human HCC2998 cells assessed as cell growth at 10^-7 M after 48 hrs by sulforhodamine B assay; conditions: HCC 2998, 48 h, read-out: Activity
ACHN [2] = assay: Growth inhibition of human ACHN cells assessed as cell growth at 10^-4 M after 48 hrs by sulforhodamine B assay; conditions: read-out: Activity
RPMI-8226 [3] = assay: Growth inhibition of human RPMI8226 cells assessed as cell growth at 10^-8 M after 48 hrs by sulforhodamine B assay; conditions: RPMI-8226, 48 h; for growth at 0.01 µM: read-out: Activity; for CC50: read-out: pLC50 (the source's name) (converted); for TGI: read-out: pTGI (converted)
COLO 205 [4] = assay: Induction of apoptosis in human COLO205 cells assessed as DNA fragmentation at 10 uM
ACHN [5] = assay: Growth inhibition of human ACHN cells assessed as cell growth at 10^-7 M after 48 hrs by sulforhodamine B assay; conditions: read-out: Activity
COLO 205 [6] = assay: Induction of apoptosis in human COLO205 cells assessed as necrotic apoptosis cells level at 10 uM after 24 hrs by Annexin V/propidium iodide staining-based fluorescence microscopy
SK-MEL-28 = assay: Growth inhibition of human SK-MEL-28 cells assessed as cell growth at 10^-6 M after 48 hrs by sulforhodamine B assay; conditions: SK-MEL-28, 48 h, read-out: Activity
KM12 [7] = assay: Growth inhibition of human KM12 cells assessed as cell growth at 10^-7 M after 48 hrs by sulforhodamine B assay; conditions: KM12, 48 h, read-out: Activity
SK-MEL-2 = assay: Growth inhibition of human SK-MEL-2 cells assessed as cell growth at 10^-5 M after 48 hrs by sulforhodamine B assay; conditions: SK-MEL-2, 48 h, read-out: Activity
[8] = Growth inhibition of human SF539 cells assessed as cell growth at 10^-4 M after 48 hrs by sulforhodamine B assay; conditions: SF-539, 48 h, read-out: Activity
SNB-75 [9] = assay: Growth inhibition of human SNB75 cells assessed as cell growth at 10^-8 M after 48 hrs by sulforhodamine B assay; conditions: SNB-75, 48 h; for growth at 0.01 µM: read-out: Activity; for TGI: read-out: pTGI (converted)
[10] = Growth inhibition of human OVCAR4 cells after 48 hrs by sulforhodamine B assay; conditions: OVCAR-4, 48 h; for CC50: read-out: LC50 (the source's name)
[11] = Growth inhibition of human HOP92 cells assessed as cell growth at 10^-7 M after 48 hrs by sulforhodamine B assay; conditions: HOP-92, 48 h, read-out: Activity
NCI-H460 = assay: Growth inhibition of human NCI-H460 cells after 48 hrs by sulforhodamine B assay; conditions: NCI-H460, 48 h; for CC50: read-out: LC50 (the source's name)
SK-MEL-5 = assay: Growth inhibition of human SK-MEL-5 cells assessed as cell growth at 10^-6 M after 48 hrs by sulforhodamine B assay; conditions: SK-MEL-5, 48 h, read-out: Activity
SW-620 = assay: Growth inhibition of human SW620 cells after 48 hrs by sulforhodamine B assay; conditions: SW-620, 48 h; for CC50: read-out: LC50 (the source's name)
NCI-H522 = assay: Growth inhibition of human NCI-H522 cells after 48 hrs by sulforhodamine B assay; conditions: NCI-H522, 48 h; for CC50: read-out: LC50 (the source's name)
MDA-MB-435 = assay: Growth inhibition of human MDA-MB-435 cells assessed as cell growth at 10^-4 M after 48 hrs by sulforhodamine B assay; conditions: MDA-MB-435, 48 h, read-out: Activity
MCF7 [12] = assay: Growth inhibition of human MCF7 cells assessed as cell growth at 10^-7 M after 48 hrs by sulforhodamine B assay; conditions: MCF7, 48 h, read-out: Activity
Malme-3M = assay: Growth inhibition of human MALME-3M cells assessed as cell growth at 10^-6 M after 48 hrs by sulforhodamine B assay; conditions: read-out: Activity
RPMI-8226 [13] = assay: Growth inhibition of human RPMI8226 cells assessed as cell growth at 10^-7 M after 48 hrs by sulforhodamine B assay; conditions: RPMI-8226, 48 h, read-out: Activity
NCI-H23 = assay: Growth inhibition of human NCI-H23 cells assessed as cell growth at 10^-8 M after 48 hrs by sulforhodamine B assay; conditions: NCI-H23, 48 h; for growth at 0.01 µM: read-out: Activity; for TGI: read-out: pTGI (converted)
[14] = Growth inhibition of human UACC257 cells assessed as cell growth at 10^-4 M after 48 hrs by sulforhodamine B assay; conditions: UACC-257, 48 h, read-out: Activity
MCF7 [15] = assay: Growth inhibition of human MCF7 cells assessed as cell growth at 10^-8 M after 48 hrs by sulforhodamine B assay; conditions: MCF7, 48 h; for growth at 0.01 µM: read-out: Activity; for TGI: read-out: pTGI (converted)
SN12C = assay: Growth inhibition of human SN12C cells assessed as cell growth at 10^-6 M after 48 hrs by sulforhodamine B assay; conditions: read-out: Activity
KM12 [16] = assay: Growth inhibition of human KM12 cells after 48 hrs by sulforhodamine B assay; conditions: KM12, 48 h; for CC50: read-out: LC50 (the source's name)
SNB-75 [17] = assay: Growth inhibition of human SNB75 cells assessed as cell growth at 10^-6 M after 48 hrs by sulforhodamine B assay; conditions: SNB-75, 48 h, read-out: Activity
SR = assay: Growth inhibition of human SR cells assessed as cell growth at 10^-7 M after 48 hrs by sulforhodamine B assay; conditions: read-out: Activity
786-0 = assay: Growth inhibition of human 786-0 cells assessed as cell growth at 10^-4 M after 48 hrs by sulforhodamine B assay; conditions: 786-0, 48 h, read-out: Activity
A549 [18] = assay: Growth inhibition of human A549/ATCC cells assessed as cell growth at 10^-8 M after 48 hrs by sulforhodamine B assay; conditions: A549, 48 h; for growth at 0.01 µM: read-out: Activity; for TGI: read-out: pTGI (converted)
A549 [19] = assay: Growth inhibition of human A549/ATCC cells assessed as cell growth at 10^-7 M after 48 hrs by sulforhodamine B assay; conditions: A549, 48 h, read-out: Activity
[20] = Growth inhibition of human RXF393 cells assessed as cell growth at 10^-8 M after 48 hrs by sulforhodamine B assay; conditions: RXF 393, 48 h; for growth at 0.01 µM: read-out: Activity; for CC50: read-out: pLC50 (the source's name) (converted); for TGI: read-out: pTGI (converted)
[21] = Growth inhibition of human OVCAR8 cells after 48 hrs by sulforhodamine B assay; conditions: OVCAR-8, 48 h; for CC50: read-out: LC50 (the source's name)

`Cc1ccc(S(=O)(=O)N2C/C(=C\c3cc(F)cc(F)c3)C(=O)/C(=C/c3cc(F)cc(F)c3)C2)cc1` gave a growth at 0.1 µM [1] of 105%, a growth at 100 µM (ACHN [2]) of -94% and a GI50 (RPMI-8226 [3]) of 37.1 nM. For the same compound, the growth at 0.01 µM (RPMI-8226 [3]) was 94%, the CC50 (RPMI-8226 [3]) was 93.3 µM and the TGI (RPMI-8226 [3]) was 331 nM. For the same compound, the Activity (COLO 205 [4]) was 69.5%, the growth at 0.1 µM (ACHN [5]) was 99% and the Activity (COLO 205 [6]) was 3%. The growth at 1 µM (SK-MEL-28) was 29%, the growth at 0.1 µM (KM12 [7]) was 103% and the growth at 10 µM (SK-MEL-2) was -44%. The growth at 100 µM [8] was -94%, the GI50 (SNB-75 [9]) was 2000 nM and the LC50 (SNB-75 [9]) was 26.3 µM. It also gave a growth at 0.01 µM (SNB-75 [9]) of 88%, a TGI (SNB-75 [9]) of 5.89 µM and a GI50 [10] of 441 nM. The TGI [10] was 5.23 µM, the CC50 [10] was 36.3 µM and the growth at 0.1 µM [11] was 69%. It also gave a GI50 (NCI-H460) of 828 nM, a TGI (NCI-H460) of 2870 nM and a CC50 (NCI-H460) of 9.22 µM. The growth at 1 µM (SK-MEL-5) was 3%, the GI50 (SW-620) was 72.1 nM and the TGI (SW-620) was 305 nM. It also gave a CC50 (SW-620) of 1450 nM, a GI50 (NCI-H522) of 316 nM and a TGI (NCI-H522) of 962 nM. It also gave a CC50 (NCI-H522) of 3.85 µM, a growth at 100 µM (MDA-MB-435) of -83% and a growth at 0.1 µM (MCF7 [12]) of 62%. For the same compound, the growth at 1 µM (Malme-3M) was -15%, the growth at 0.1 µM (RPMI-8226 [13]) was 17% and the GI50 (NCI-H23) was 1740 nM. For the same compound, the LC50 (NCI-H23) was 26.9 µM, the growth at 0.01 µM (NCI-H23) was 98% and the TGI (NCI-H23) was 5.01 µM. The growth at 100 µM [14] was -84%, the GI50 (MCF7 [15]) was 174 nM and the LC50 (MCF7 [15]) was 6.92 µM. For the same compound, the growth at 0.01 µM (MCF7 [15]) was 89%, the TGI (MCF7 [15]) was 1.45 µM and the growth at 1 µM (SN12C) was 11%. The GI50 (KM12 [16]) was 327 nM, the TGI (KM12 [16]) was 1000 nM and the CC50 (KM12 [16]) was 4.04 µM. The growth at 1 µM (SNB-75 [17]) was 82%, the growth at 0.1 µM (SR) was 14% and the growth at 100 µM (786-0) was -95%. For the same compound, the GI50 (A549 [18]) was 2880 nM, the LC50 (A549 [18]) was > 100 µM and the growth at 0.01 µM (A549 [18]) was 94%. For the same compound, the TGI (A549 [18]) was 14.8 µM, the growth at 0.1 µM (A549 [19]) was 93% and the GI50 [20] was 724 nM. The growth at 0.01 µM [20] was 96%, the CC50 [20] was 5.13 µM and the TGI [20] was 2140 nM. For the same compound, the GI50 [21] was 301 nM, the TGI [21] was 1770 nM and the CC50 [21] was 16.3 µM.

Compound `O=C1/C(=C/c2ccc(Cl)cc2Cl)CN(S(=O)(=O)c2ccccc2)C/C1=C\c1ccc(Cl)cc1Cl` has a growth at 0.1 µM [1] of 102%, a growth at 100 µM (ACHN [2]) of -17% and a GI50 (RPMI-8226 [3]) of 224 nM. The growth at 0.01 µM (RPMI-8226 [3]) was 104%, the CC50 (RPMI-8226 [3]) was > 100 µM and the TGI (RPMI-8226 [3]) was 603 nM. For the same compound, the Activity (COLO 205 [4]) was 45%, the growth at 0.1 µM (ACHN [5]) was 96% and the Activity (COLO 205 [6]) was 1%. The growth at 1 µM (SK-MEL-28) was 93%, the growth at 0.1 µM (KM12 [7]) was 105% and the growth at 10 µM (SK-MEL-2) was 36%. For the same compound, the growth at 100 µM [8] was -40%, the GI50 (SNB-75 [9]) was 437 nM and the LC50 (SNB-75 [9]) was > 100 µM. For the same compound, the growth at 0.01 µM (SNB-75 [9]) was 79%, the TGI (SNB-75 [9]) was 7.24 µM and the GI50 [10] was 279 nM. For the same compound, the TGI [10] was > 100 µM, the CC50 [10] was > 100 µM and the growth at 0.1 µM [11] was 77%. It also gave a GI50 (NCI-H460) of 208 nM, a TGI (NCI-H460) of 447 nM and a CC50 (NCI-H460) of 0.959 µM. The growth at 1 µM (SK-MEL-5) was 94%, the GI50 (SW-620) was 317 nM and the TGI (SW-620) was 2790 nM. The CC50 (SW-620) was > 100000 nM, the GI50 (NCI-H522) was 854 nM and the TGI (NCI-H522) was 2990 nM. For the same compound, the CC50 (NCI-H522) was 9.73 µM, the growth at 100 µM (MDA-MB-435) was -9% and the growth at 0.1 µM (MCF7 [12]) was 84%. It also gave a growth at 1 µM (Malme-3M) of 123%, a growth at 0.1 µM (RPMI-8226 [13]) of 91% and a GI50 (NCI-H23) of 427 nM. The LC50 (NCI-H23) was > 100 µM, the growth at 0.01 µM (NCI-H23) was 103% and the TGI (NCI-H23) was 2.69 µM. The growth at 100 µM [14] was 42%, the GI50 (MCF7 [15]) was 302 nM and the LC50 (MCF7 [15]) was > 100 µM. It also gave a growth at 0.01 µM (MCF7 [15]) of 96%, a TGI (MCF7 [15]) of 100 µM and a growth at 1 µM (SN12C) of -15%. It also gave a GI50 (KM12 [16]) of 256 nM, a TGI (KM12 [16]) of 602 nM and a CC50 (KM12 [16]) of 25.7 µM. It also gave a growth at 1 µM (SNB-75 [17]) of 38%, a growth at 0.1 µM (SR) of 70% and a growth at 100 µM (786-0) of -93%. The GI50 (A549 [18]) was 275 nM, the LC50 (A549 [18]) was > 100 µM and the growth at 0.01 µM (A549 [18]) was 93%. It also gave a TGI (A549 [18]) of 0.891 µM, a growth at 0.1 µM (A549 [19]) of 94% and a GI50 [20] of 1070 nM. It also gave a growth at 0.01 µM [20] of 78%, a CC50 [20] of 5.5 µM and a TGI [20] of 2400 nM. The GI50 [21] was 286 nM, the TGI [21] was 958 nM and the CC50 [21] was > 100 µM.
